Source: PMC10498667 (Chemical Science, 2023)
Read-outs that look alike come from different tables or passages of the source.

Legend:
Assay type in all cases: biochemical
[1] = target: T1, Electric eel acetylcholinesterase (eeAChE) (Electrophorus electricus, UniProt O42275); assay: Fluorometric AChE activity assay
T1 construct: purchased Invitrogen (AChE assay kit)
From the text: Inhibiting the activity of AChE can maintain a proper level of ACh under dysregulated cholinergic conditions.[10,11] Thus, the inhibitory capability of flavonoids against AChE was investigated by a previously reported fluorescent AChE assay with slight modifications.[60] […] The inclusion of three hydroxyl groups on the A ring is critical for controlling the catalytic activity of AChE, as previously reported,[49] whereas the incorporation of a chloro substituent, with three hydroxyl groups, and methoxy moieties instead of hydroxyl groups on the A ring can decrease such inhibitory activity. Flavonoids 2, 3, and 1b over 1 illustrates the importance of the position of hydroxyl groups on the A ring and the isoflavone variation in directing the flavonoids' ability to inhibit the activity of AChE. […]
All experiments were performed in triplicate.
AChE Activity Assay. The AChE inhibitory activity of flavonoids was measured by a fluorometric AChE assay kit (Invitrogen) following the manufacturer ’s protocol with slight modifications.
Electric eel acetylcholinesterase (eeAChE) was dissolved and diluted with a working solution. The eeAChE solution (50 µL) was added into a 96-well plate. Various concentrations of flavonoids were then introduced into the 96-well plate. The final concentrations of flavonoids were as follow: […]
µM). After shaking, the mixture of eeAChE and flavonoids was pre-incubated for 15 min. A reaction mixture containing acetylcholine, an AChE probe, and AbRedTM was added into the 96-well plate to initiate the reaction. The AChE activity was calculated based on the fluorescence intensity (lex/lem = 571/585 nm) of the wells that was detected after 15 min incubation. Data were normalized to the control (no inhibitor). All experiments were performed in triplicate. […]
For the disaggregation studies, Ab (25 µM) was incubated with and without CuCl2 or ZnCl2 (25 µM) for 24 h at 37 °C with constant agitation to generate preformed Ab aggregates. The resultant Ab aggregates were then treated with flavonoids (50 µM) and incubated for additional 24 h with constant agitation. For the additional disaggregation experiments, preformed Ab42 aggregates (25 µM) or Ab42 seeds (10% v/v) with or without metal ions (25 µM for CuCl2 and ZnCl2) were incubated with flavonoids (50 µM) for 24 h with constant agitation. The resultant Ab aggregates were then treated with freshly prepared Ab42

Aβ42 [2] = target: T2, Aβ42 (Homo sapiens, UniProt P05067); assay: Aβ42 aggregation inhibition experiments (gel/western blot, TEM); conditions: flavonoid 50 μM, 24 h
T2 construct: purchased Peptide Institute, Inc. (Osaka, Japan)
T2 sequence (P05067 672-713 limits assumed): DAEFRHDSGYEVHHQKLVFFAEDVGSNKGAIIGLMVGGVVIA
Method: To verify whether a series of nine flavonoids can modulate the aggregation of Aβ with and without metal ions, the molecular weight (MW) distribution and morphology of the resultant Aβ species were determined by gel electrophoresis with western blotting (gel/western blot) using an anti-Aβ antibody (6E10) and transmission electron microscopy (TEM), respectively. Two types of experiments were carried out employing two major Aβ isoforms, i.e., Aβ42 and Aβ40:[25] (i) inhibition studies to identify the effect of 1–5, 1a, 1b, 4a, and 4b on the formation of Aβ aggregates; (ii) disaggregation studies to evaluate if the flavonoids with reactivities towards Aβ aggregation in inhibition studies can disassemble preformed Aβ aggregates or modulate their further aggregation, as illustrated in Fig. 4 and S5–S9. ^† Moreover, the solutions containing the flavonoids and Cu(II) were probed by electronic absorption (Abs) spectroscopy to monitor their metal binding. […] As expected, no Abs change of 1a and 4a composed of methoxy groups on the A ring was detected by addition of Cu(II). […]
Ab Aggregation Experiments. Ab was dissolved in ammonium hydroxide [1% w/w NH4OH (aq)] and the resulting solution was aliquoted, lyophilized overnight, and stored at –80 °C. A stock solution of Ab was then prepared by dissolving the lyophilized peptide with NH4OH (1% w/w, aq; 10 µL) and diluting with ddH2O. All Ab samples were prepared following previously reported procedures.21,22 The concentration of the peptide solution was determined by measuring its […]
solution (20 mM HEPES, pH 7.4, 150 mM NaCl) was used for preparing Ab samples. For the inhibition studies, flavonoids (final concentration, 50 µM; 1% v/v DMSO) were added to the samples of Ab (25 µM) in the absence and presence of CuCl2 or ZnCl2 (25 µM) followed by incubation for 24 h at 37 °C with constant agitation. For the disaggregation studies, Ab (25 µM) was incubated with and without CuCl2 or ZnCl2 (25 µM) for 24 h at 37 °C with constant agitation to generate preformed Ab aggregates. The resultant Ab aggregates were then treated with flavonoids (50 µM) and incubated for additional 24 h with constant agitation. For the additional disaggregation experiments, preformed Ab42 aggregates (25 µM) or Ab42 seeds (10% v/v) with or without metal ions (25 µM for CuCl2 and ZnCl2) were incubated with flavonoids (50 µM) for 24 h with constant agitation. The resultant Ab aggregates were then treated with freshly prepared Ab42 […]
(25 µM) and incubated for additional 24 h with constant agitation.
Gel/Western Blot. The resultant Ab species from the aggregation experiments were analyzed by gel/Western blot using an anti-Ab antibody (6E10, Covance, Princeton, NJ, USA).21,22 Each sample (10 µL) was separated on a 10–20% tricine gel (Invitrogen). Following separation, the proteins were transferred onto nitrocellulose membranes and blocked with bovine serum albumin (BSA, 3% w/v; Sigma-Aldrich) in Tris-buffered saline (TBS) containing 0.1% v/v Tween-20 (Sigma-Aldrich) (TBS-T) for 4 h at room temperature or overnight at 4 °C. The membranes were incubated with 6E10 (1:2,000) in the solution of BSA (2% w/v in TBS-T) for 4 h at room temperature. […] A homemade ECL kit21–23 was used to visualize gel/Western blots on a ChemiDoc MP Imaging System (Bio-Rad).
TEM. Samples for TEM were prepared following previously reported methods.22,24 Glow-discharged grids (Formvar/Carbon 300-mesh; Electron Microscopy Sciences, Hatfield, PA, USA) were treated with Ab samples (25 µM; 7.5 µL) for 2 min at room temperature. Excess sample was removed using filter paper followed by washing with ddH2O (3x). Each grid incubated with uranyl […]

Aβ42 [3] = target: T2, Aβ42; assay: Dot blot assay with anti-oligomer (A11) and anti-fibril (OC) antibodies; conditions: flavonoid 200 μM, up to 24 h
From the text: Moreover, to investigate the effects of the flavonoids on the oligomerization and fibrilization of metal-free Aβ42 and metal–Aβ42, we performed the dot blot assay employing anti-oligomer (A11) and anti-fibril (OC) antibodies,[23] as illustrated in Fig. S12. ^† It should be noted that the thioflavin-T (ThT) assay utilized for monitoring the formation of β-sheet-rich aggregates cannot be carried out under our experimental conditions since the absorption windows of 4, 5, and 4b interfere with the excitation and emission wavelengths of ThT (Fig. S13 ^†). […]
Dot Blot Assay. The samples containing Ab42 (100 µM) with or without CuCl2 or ZnCl2 (100 µM) in the absence and presence of flavonoids (200 µM; 1% v/v DMSO) were prepared in 20 mM HEPES, pH 7.4, 150 mM NaCl and incubated for various time points (0, 1, 2, 3, 4, 6, 12, and 24 h). […] The membrane was incubated with a primary antibody [i.e., 6E1026 for Ab species (1:2,000), A1126 for Ab oligomers (1:1,000; Invitrogen, Carlsbad, CA, USA), or OC26 for Ab fibrils (1:2,000; Merch Millipore, Billerica, MA, USA)] in the solution of BSA (2% w/v in TBS-T) for 4 h at room temperature. […] A homemade ECL kit21–23 was used to visualize the results on a ChemiDoc MP Imaging System.
The intensity observed from A11- or OC-detectable Ab species was quantified, relative to that detected from 6E10, by the ImageJ software. […]

[4] = Zn(II)–Aβ42, Aβ 25 μM, Zn(II) 25 μM
[5] = Cu(II)–Aβ42 or Zn(II)–Aβ42 100 μM

T1 sequence (O42275 24-633): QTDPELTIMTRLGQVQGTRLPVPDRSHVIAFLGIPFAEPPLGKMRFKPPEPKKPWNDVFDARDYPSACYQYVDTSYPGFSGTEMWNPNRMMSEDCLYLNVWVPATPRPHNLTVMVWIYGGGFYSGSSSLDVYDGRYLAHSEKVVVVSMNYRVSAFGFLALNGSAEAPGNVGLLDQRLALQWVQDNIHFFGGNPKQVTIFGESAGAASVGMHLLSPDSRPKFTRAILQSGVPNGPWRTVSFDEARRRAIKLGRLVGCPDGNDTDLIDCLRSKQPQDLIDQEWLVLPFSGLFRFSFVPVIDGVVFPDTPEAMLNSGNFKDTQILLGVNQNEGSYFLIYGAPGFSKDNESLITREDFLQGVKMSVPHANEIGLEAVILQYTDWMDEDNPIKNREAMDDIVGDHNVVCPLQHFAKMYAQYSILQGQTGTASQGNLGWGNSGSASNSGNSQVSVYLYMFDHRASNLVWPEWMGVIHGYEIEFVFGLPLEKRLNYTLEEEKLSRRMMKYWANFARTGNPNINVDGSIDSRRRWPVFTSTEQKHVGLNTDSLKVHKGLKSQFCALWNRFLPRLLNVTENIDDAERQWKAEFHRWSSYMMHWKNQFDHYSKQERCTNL

SMILES | inhibitory activity against AChE (IC50 could not be obtained) ([1]; fluorometric assay, eeAChE) | morphology of resultant aggregates (TEM) (Aβ42 [2]; Cu(II)–Aβ42) | MW distribution of resultant species (gel/western blot) (Aβ42 [2]; [4]) | morphology of resultant aggregates (TEM) (Aβ42 [2]; Zn(II)–Aβ42) | MW distribution of resultant species (gel/western blot) (Aβ42 [2]; metal-free Aβ42 25 μM, 37 °C) | morphology of resultant aggregates (TEM) (Aβ42 [2]; metal-free Aβ42) | A11- and OC-detectable signals (oligomers and fibrils) (Aβ42 [3]; [5]) | A11- and OC-detectable signals (oligomers and fibrils) (Aβ42 [3]; metal-free Aβ42 100 μM) | IC50 [1] | IC50 ([1]; fluorometric assay, eeAChE, read-out: IC50 for AChE inhibition)
COc1cc(OC)c2c(=O)cc(-c3ccccc3)oc2c1 [1a, 5,7-dimethoxyflavone] | negligible inhibitory activity | did not indicate any noticeable morphological changes | a significant change in the MW distribution was not indicated | did not indicate any noticeable morphological changes | could not change the size distribution | little or no morphological alteration | not significantly varied | not significantly varied |  | 
O=c1c(-c2ccccc2)coc2cc(O)cc(O)c12 [1b, 5,7-dihydroxyisoflavone] |  | did not indicate any noticeable morphological changes | a significant change in the MW distribution was not indicated | did not indicate any noticeable morphological changes | could not change the size distribution | little or no morphological alteration | not significantly varied | not significantly varied | 11.8 µM | 
COc1cc2oc(-c3ccccc3)cc(=O)c2c(OC)c1OC [4a, 5,6,7-trimethoxyflavone] |  | did not indicate any noticeable morphological changes | a significant change in the MW distribution was not indicated | did not indicate any noticeable morphological changes | could not change the size distribution | little or no morphological alteration | not significantly varied | not significantly varied |  | 52.5 µM
